Structures are written as SMILES. pEC50: −log10 of the molar value.

The source of these data is ChEMBL document CHEMBL4387773, “Identification of potent, selective and orally bioavailable phenyl ((R)-3-phenylpyrrolidin-3-yl)sulfone analogues as RORγt inverse agonists” (Bioorg Med Chem Lett, 2019).

Tested on in the first data set: not listed separately
In words: Stability in mouse liver microsomes assessed as parent compound remaining after 10 mins. It counts as ADME, Microsome. To be noted: liver microsomes, read-out: Stability. (Microsomes from liver hold many membrane-bound enzymes, among them those of drug oxidation.)
For the compound `O=C([C@H]1CC[C@@](F)(C(=O)O)CC1)N1CC[C@](c2ccc(C(F)(C(F)(F)F)C(F)(F)F)cc2)(S(=O)(=O)c2ccc(F)cc2)C1`, the remaining at 10 min turned out to be 94%.

Consider `O=C([C@H]1CC[C@H](c2nnn[nH]2)CC1)N1CC[C@](c2ccc(C(F)(C(F)(F)F)C(F)(F)F)cc2)(S(=O)(=O)c2ccc(F)cc2)C1`, for which the remaining at 10 min was determined as 73%.

The same data set, now with this note: microsomes, 10 min.
As to `O=C(C1CCS(=O)(=O)C1)N1CC[C@](c2ccc(C(F)(C(F)(F)F)C(F)(F)F)cc2)(S(=O)(=O)c2ccc(F)cc2)C1` (stereo in doubt; 33), the Stability is on record as 96%.

A further data set concerns the target T1, Nuclear receptor ROR-beta (Homo sapiens, UniProt Q92753).
T1 sequence (Q92753 whole entry): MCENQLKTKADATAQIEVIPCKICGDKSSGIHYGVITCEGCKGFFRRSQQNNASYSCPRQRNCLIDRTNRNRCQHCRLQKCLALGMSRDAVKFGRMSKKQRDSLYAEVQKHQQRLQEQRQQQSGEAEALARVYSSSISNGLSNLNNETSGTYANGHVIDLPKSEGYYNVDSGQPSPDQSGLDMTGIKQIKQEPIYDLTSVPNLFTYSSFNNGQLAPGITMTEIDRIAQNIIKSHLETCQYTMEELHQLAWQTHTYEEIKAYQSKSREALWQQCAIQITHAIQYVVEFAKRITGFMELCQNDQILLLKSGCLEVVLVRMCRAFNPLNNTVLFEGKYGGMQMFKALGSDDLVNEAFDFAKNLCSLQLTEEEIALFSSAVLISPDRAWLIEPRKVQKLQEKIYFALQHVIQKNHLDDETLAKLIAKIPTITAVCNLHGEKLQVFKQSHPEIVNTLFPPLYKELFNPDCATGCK
In words: Inverse agonist activity at human Gal4-fused RORbeta LBD (200 to 559 residues) expressed in human Jurkat cells measured after 18 hrs by steady-glo luciferase reporter gene assay.
Settings: not given
It counts as cell-based.
In general, pEC50 refers to the negative decadic logarithm of the EC50, by convention in mol/L. On to `O=C([C@H]1CC[C@@](F)(C(=O)O)CC1)N1CC[C@](c2ccc(C(F)(C(F)(F)F)C(F)(F)F)cc2)(S(=O)(=O)c2ccc(F)cc2)C1`, for which the negative-log EC50 (pEC50) was < 4.40.

Regarding `O=C([C@H]1CC[C@H](c2nnn[nH]2)CC1)N1CC[C@](c2ccc(C(F)(C(F)(F)F)C(F)(F)F)cc2)(S(=O)(=O)c2ccc(F)cc2)C1`, the pEC50 was < 4.40.

The same data set, now with this note: jurkat.
Consider `O=C(C1CCS(=O)(=O)C1)N1CC[C@](c2ccc(C(F)(C(F)(F)F)C(F)(F)F)cc2)(S(=O)(=O)c2ccc(F)cc2)C1` (stereo in doubt; 33), for which the pEC50 was < 4.40.

`CS(=O)(=O)C1CCC(C(=O)N2CC[C@](c3ccc(C(F)(C(F)(F)F)C(F)(F)F)cc3)(S(=O)(=O)c3ccc(F)cc3)C2)CC1` (stereo in doubt; 29): the pEC50 was < 4.40.

The next data set has as its target T2, Nuclear receptor subfamily 1 group I member 2 (Homo sapiens, UniProt O75469).
T2 sequence (O75469 whole entry): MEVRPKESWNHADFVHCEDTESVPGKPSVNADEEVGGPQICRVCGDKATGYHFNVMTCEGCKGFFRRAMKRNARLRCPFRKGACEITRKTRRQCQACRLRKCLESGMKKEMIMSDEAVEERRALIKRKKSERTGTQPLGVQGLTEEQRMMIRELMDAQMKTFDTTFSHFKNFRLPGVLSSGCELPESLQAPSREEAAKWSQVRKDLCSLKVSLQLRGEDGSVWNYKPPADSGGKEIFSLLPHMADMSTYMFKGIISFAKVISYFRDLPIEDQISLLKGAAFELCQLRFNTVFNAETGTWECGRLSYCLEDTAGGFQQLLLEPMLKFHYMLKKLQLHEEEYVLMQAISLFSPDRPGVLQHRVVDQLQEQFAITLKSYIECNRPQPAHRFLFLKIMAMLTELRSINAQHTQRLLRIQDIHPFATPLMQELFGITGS
In words: (§1) Transactivation of PXR (unknown origin) expressed in human HepG2 cells assessed as maximum receptor activation response relative to control. Format: cell-based. The conditions noted are these: hepg2.
For the compound `O=C(C1CCS(=O)(=O)C1)N1CC[C@](c2ccc(C(F)(C(F)(F)F)C(F)(F)F)cc2)(S(=O)(=O)c2ccc(F)cc2)C1` (stereo in doubt; 33), the “%max” value amounted to 37%.

As for `CS(=O)(=O)C1CCC(C(=O)N2CC[C@](c3ccc(C(F)(C(F)(F)F)C(F)(F)F)cc3)(S(=O)(=O)c3ccc(F)cc3)C2)CC1` (stereo in doubt; 29), the “%max” value came out at 6%.

Another data set concerns the target T3, PXR (Homo sapiens, UniProt O75469).
T3 sequence (O75469 whole entry): T2 sequence (O75469 whole entry)
The data set is described as §1. It counts as cell-based. The conditions noted are these: human HepG2 cells that express PXR, read-out: %max.
As for `O=C([C@H]1CC[C@@](F)(C(=O)O)CC1)N1CC[C@](c2ccc(C(F)(C(F)(F)F)C(F)(F)F)cc2)(S(=O)(=O)c2ccc(F)cc2)C1`, the Emax came out at 69%.

In the case of `O=C([C@H]1CC[C@H](c2nnn[nH]2)CC1)N1CC[C@](c2ccc(C(F)(C(F)(F)F)C(F)(F)F)cc2)(S(=O)(=O)c2ccc(F)cc2)C1`, the Emax worked out at 11%.

The target of the next data set is T4, Nuclear receptor ROR-alpha (Homo sapiens, UniProt P35398).
T4 sequence (P35398 whole entry): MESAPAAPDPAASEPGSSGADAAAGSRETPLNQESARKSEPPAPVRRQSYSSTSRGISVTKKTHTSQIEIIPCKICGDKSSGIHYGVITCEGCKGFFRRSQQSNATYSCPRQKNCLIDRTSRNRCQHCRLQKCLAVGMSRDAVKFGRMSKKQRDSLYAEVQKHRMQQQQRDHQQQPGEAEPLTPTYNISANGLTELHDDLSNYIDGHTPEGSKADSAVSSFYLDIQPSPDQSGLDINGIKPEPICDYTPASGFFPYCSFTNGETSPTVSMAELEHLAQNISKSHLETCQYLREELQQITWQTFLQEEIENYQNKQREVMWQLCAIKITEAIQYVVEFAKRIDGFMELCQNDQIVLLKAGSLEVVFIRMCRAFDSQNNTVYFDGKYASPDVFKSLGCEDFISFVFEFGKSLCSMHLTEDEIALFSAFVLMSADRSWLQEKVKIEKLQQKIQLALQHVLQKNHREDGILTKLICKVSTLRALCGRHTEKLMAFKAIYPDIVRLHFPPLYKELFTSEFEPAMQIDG
The data set is described as follows: Inverse agonist activity at human Gal4-fused RORalpha LBD (272 to 556 residues) expressed in human Jurkat cells measured after 18 hrs by steady-glo luciferase reporter gene assay. Format: cell-based.
Settings: not given
As to `O=C([C@H]1CC[C@@](F)(C(=O)O)CC1)N1CC[C@](c2ccc(C(F)(C(F)(F)F)C(F)(F)F)cc2)(S(=O)(=O)c2ccc(F)cc2)C1`, the pEC50 is < 4.40.

With `O=C([C@H]1CC[C@H](c2nnn[nH]2)CC1)N1CC[C@](c2ccc(C(F)(C(F)(F)F)C(F)(F)F)cc2)(S(=O)(=O)c2ccc(F)cc2)C1`, the pEC50 was < 4.40.

Still in this data set, the particulars now being: jurkat.
In the case of `O=C(C1CCS(=O)(=O)C1)N1CC[C@](c2ccc(C(F)(C(F)(F)F)C(F)(F)F)cc2)(S(=O)(=O)c2ccc(F)cc2)C1` (stereo in doubt; 33), the pEC50 is < 4.40.

On to `CS(=O)(=O)C1CCC(C(=O)N2CC[C@](c3ccc(C(F)(C(F)(F)F)C(F)(F)F)cc3)(S(=O)(=O)c3ccc(F)cc3)C2)CC1` (stereo in doubt; 29), for which the pEC50 was < 4.40.

Tested on in the next data set: not listed separately
The data set is described as follows: Stability in human liver microsomes assessed as parent compound remaining after 10 mins. Format: ADME, Microsome. The conditions noted are these: liver microsomes, read-out: Stability.
Consider `O=C([C@H]1CC[C@@](F)(C(=O)O)CC1)N1CC[C@](c2ccc(C(F)(C(F)(F)F)C(F)(F)F)cc2)(S(=O)(=O)c2ccc(F)cc2)C1`, for which the remaining at 10 min came out at 82%.

With `O=C([C@H]1CC[C@H](c2nnn[nH]2)CC1)N1CC[C@](c2ccc(C(F)(C(F)(F)F)C(F)(F)F)cc2)(S(=O)(=O)c2ccc(F)cc2)C1`, the remaining at 10 min came to 100%.

The same data set, now with this note: microsomes, 10 min.
As for `CS(=O)(=O)C1CCC(C(=O)N2CC[C@](c3ccc(C(F)(C(F)(F)F)C(F)(F)F)cc3)(S(=O)(=O)c3ccc(F)cc3)C2)CC1` (stereo in doubt; 29), the Stability was 100%.

Another data set deals with T5, Oxysterols receptor LXR-beta (Homo sapiens, UniProt P55055).
T5 sequence (P55055 whole entry): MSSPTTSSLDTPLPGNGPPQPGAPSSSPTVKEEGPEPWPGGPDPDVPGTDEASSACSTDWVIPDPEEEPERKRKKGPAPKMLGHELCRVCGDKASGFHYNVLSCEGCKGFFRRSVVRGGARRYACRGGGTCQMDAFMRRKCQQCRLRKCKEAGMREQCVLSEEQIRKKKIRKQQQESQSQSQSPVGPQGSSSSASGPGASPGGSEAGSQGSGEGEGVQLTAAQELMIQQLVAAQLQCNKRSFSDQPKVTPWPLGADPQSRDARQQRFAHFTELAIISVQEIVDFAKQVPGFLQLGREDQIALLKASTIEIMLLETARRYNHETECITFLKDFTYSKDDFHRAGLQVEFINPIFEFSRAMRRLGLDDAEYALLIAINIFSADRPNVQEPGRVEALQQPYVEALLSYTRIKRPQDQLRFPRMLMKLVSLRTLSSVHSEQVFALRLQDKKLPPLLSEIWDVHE
The data set is described as follows: Transactivation of human GAL4-fused LXRbeta expressed in African green monkey CV1 cells. It counts as cell-based.
Settings: not given
Turning to `O=C(C1CCS(=O)(=O)C1)N1CC[C@](c2ccc(C(F)(C(F)(F)F)C(F)(F)F)cc2)(S(=O)(=O)c2ccc(F)cc2)C1` (stereo in doubt; 33), the pEC50 is < 5.12.

As to `CS(=O)(=O)C1CCC(C(=O)N2CC[C@](c3ccc(C(F)(C(F)(F)F)C(F)(F)F)cc3)(S(=O)(=O)c3ccc(F)cc3)C2)CC1` (stereo in doubt; 29), the pEC50 is < 5.12.

In the case of `O=C([C@H]1CC[C@@](F)(C(=O)O)CC1)N1CC[C@](c2ccc(C(F)(C(F)(F)F)C(F)(F)F)cc2)(S(=O)(=O)c2ccc(F)cc2)C1`, the negative logarithm of the EC50 (pEC50) is < 5.12.

`O=C([C@H]1CC[C@H](c2nnn[nH]2)CC1)N1CC[C@](c2ccc(C(F)(C(F)(F)F)C(F)(F)F)cc2)(S(=O)(=O)c2ccc(F)cc2)C1`: the pEC50 is < 5.12.

In another data set the target is T2, Nuclear receptor subfamily 1 group I member 2. The data set is described as follows: Transactivation of PXR (unknown origin) expressed in human HepG2 cells. It counts as cell-based.
Settings: not given
Regarding `O=C(C1CCS(=O)(=O)C1)N1CC[C@](c2ccc(C(F)(C(F)(F)F)C(F)(F)F)cc2)(S(=O)(=O)c2ccc(F)cc2)C1` (stereo in doubt; 33), the pEC50 is 5.14.

As to `CS(=O)(=O)C1CCC(C(=O)N2CC[C@](c3ccc(C(F)(C(F)(F)F)C(F)(F)F)cc3)(S(=O)(=O)c3ccc(F)cc3)C2)CC1` (stereo in doubt; 29), the pEC50 is < 4.30.

Consider `O=C([C@H]1CC[C@@](F)(C(=O)O)CC1)N1CC[C@](c2ccc(C(F)(C(F)(F)F)C(F)(F)F)cc2)(S(=O)(=O)c2ccc(F)cc2)C1`, for which the pEC50 was < 4.66.

`O=C([C@H]1CC[C@H](c2nnn[nH]2)CC1)N1CC[C@](c2ccc(C(F)(C(F)(F)F)C(F)(F)F)cc2)(S(=O)(=O)c2ccc(F)cc2)C1`: the pEC50 was < 4.30.

The target of the next data set is T6, Oxysterols receptor LXR-alpha (Homo sapiens, UniProt Q13133).
T6 sequence (Q13133 whole entry): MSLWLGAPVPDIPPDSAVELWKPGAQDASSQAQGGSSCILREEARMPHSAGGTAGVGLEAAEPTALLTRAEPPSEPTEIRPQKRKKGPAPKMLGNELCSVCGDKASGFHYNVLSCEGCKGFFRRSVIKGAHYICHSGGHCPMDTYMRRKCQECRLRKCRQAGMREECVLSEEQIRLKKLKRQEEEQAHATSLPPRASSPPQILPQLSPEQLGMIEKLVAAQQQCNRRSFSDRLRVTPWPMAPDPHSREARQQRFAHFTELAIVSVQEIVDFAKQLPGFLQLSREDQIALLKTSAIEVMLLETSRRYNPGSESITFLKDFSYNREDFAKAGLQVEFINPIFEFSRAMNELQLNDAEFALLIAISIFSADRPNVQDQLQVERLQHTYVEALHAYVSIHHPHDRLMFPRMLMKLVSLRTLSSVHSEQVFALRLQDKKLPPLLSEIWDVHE
In words: Transactivation of human GAL4-fused LXRalpha expressed in African green monkey CV1 cells. It counts as cell-based.
Settings: not given
Consider `O=C(C1CCS(=O)(=O)C1)N1CC[C@](c2ccc(C(F)(C(F)(F)F)C(F)(F)F)cc2)(S(=O)(=O)c2ccc(F)cc2)C1` (stereo in doubt; 33), for which the pEC50 was < 5.12.

In the case of `CS(=O)(=O)C1CCC(C(=O)N2CC[C@](c3ccc(C(F)(C(F)(F)F)C(F)(F)F)cc3)(S(=O)(=O)c3ccc(F)cc3)C2)CC1` (stereo in doubt; 29), the pEC50 is < 5.12.

For `O=C([C@H]1CC[C@@](F)(C(=O)O)CC1)N1CC[C@](c2ccc(C(F)(C(F)(F)F)C(F)(F)F)cc2)(S(=O)(=O)c2ccc(F)cc2)C1`, the pEC50 is < 5.12.

As to `O=C([C@H]1CC[C@H](c2nnn[nH]2)CC1)N1CC[C@](c2ccc(C(F)(C(F)(F)F)C(F)(F)F)cc2)(S(=O)(=O)c2ccc(F)cc2)C1`, the pEC50 is < 5.12.
